# Data from patent publication US20250295113A1, “COMPOSITION AND METHOD FOR CONTROLLING WEEDS” (priority 2022, published 2025).
# How the values were obtained:
# Torpedograss = assay: Example 3: Torpedograss control trial; type: in vivo, Torpedograss (Panicum repens); conditions: quinclorac 573 g ai/ha with and without metcamifen 75 g ai/ha; two applications, 21-day interval
# Description: (§1) Two applications were made on a 21-day interval.
# blanket crabgrass = assay: Example 4: blanket crabgrass control trial in Floratam St Augustinegrass; type: in vivo, blanket crabgrass (Digitaria serotina); conditions: quinclorac 573 g ai/ha; two applications, 21-day interval
# Description: as §1
# [1] = system: St Augustinegrass variety 'Floratam'; assay: Example 1: Floratam St Augustinegrass phytotoxicity trial; conditions: quinclorac alone, both formulations, 573 g ai/ha, two applications on 21-day interval
smiles,measurement,setting,value
"O=C(O)c1c(Cl)ccc2cc(Cl)cnc12 [Quinclorac, 3,7-dichloro-8-quinolinecarboxylic acid]",Torpedograss control / efficacy (in words),Torpedograss,provided control of Torpedograss
same,blanket crabgrass control (in words),blanket crabgrass,"excellent, significant control"
same,injury to Floratam St Augustinegrass (in words),[1],significant injury
